Measured values taken from patent publication US8921358B2, “Apoptosis signal-regulating kinase 1 inhibitors” (Takeda Pharmaceutical Company Limited, priority 2008, dated 2014).
pIC50: −log10 of the molar value.

Molecular target: T1, human ASK1 (Homo sapiens, UniProt Q99683)
T1 construct: a 2.2 kb DNA fragment containing an ASK1 gene was recovered from the gel; made in house; host or cells: Sf-21 insect cells, recombinant baculovirus (pFASTBAC1, Bac-to-Bac)
T1 sequence (Q99683 649-1374 limits assumed): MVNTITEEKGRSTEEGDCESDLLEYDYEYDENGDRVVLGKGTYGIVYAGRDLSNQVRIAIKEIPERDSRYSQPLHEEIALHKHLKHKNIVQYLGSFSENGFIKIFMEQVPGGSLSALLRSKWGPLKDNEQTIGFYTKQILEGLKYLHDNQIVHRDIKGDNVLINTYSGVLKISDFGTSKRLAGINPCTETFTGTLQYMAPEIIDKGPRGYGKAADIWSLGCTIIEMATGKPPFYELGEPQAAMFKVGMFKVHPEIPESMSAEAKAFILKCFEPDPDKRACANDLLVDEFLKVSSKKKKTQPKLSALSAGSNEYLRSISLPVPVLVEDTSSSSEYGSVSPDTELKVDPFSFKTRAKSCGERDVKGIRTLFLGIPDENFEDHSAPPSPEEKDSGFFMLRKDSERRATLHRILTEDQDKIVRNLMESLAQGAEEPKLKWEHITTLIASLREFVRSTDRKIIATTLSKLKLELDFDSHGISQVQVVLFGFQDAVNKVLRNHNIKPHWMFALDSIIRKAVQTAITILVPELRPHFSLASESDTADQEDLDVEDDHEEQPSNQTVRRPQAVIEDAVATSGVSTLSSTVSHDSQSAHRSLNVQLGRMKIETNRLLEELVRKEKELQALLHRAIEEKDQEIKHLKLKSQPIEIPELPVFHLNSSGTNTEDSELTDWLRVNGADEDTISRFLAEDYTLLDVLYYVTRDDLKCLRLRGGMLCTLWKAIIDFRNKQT
Test: Scintillation assay measuring inhibition of ASK1 phosphorylation of myelin basic protein
Type: biochemical
Details: active ASK1 protein 30 ng, myelin basic protein 1 μg, [γ-32P]ATP, room temperature 30 min; values given as ranges; read-out: Enzyme Activity IC50
Protocol: Cloning of cDNA encoding human ASK1 was conducted by PCR using primers, 5′-[…] AGAGAAGGGGA-3′ (SEQ ID NO: 1) and 5′-[…]-3′ (SEQ ID NO: 2), from human heart cDNA library (Becton, Dickinson and Company). The PCR product was subjected to agarose gel (1%) electrophoresis, a 2.2 kb DNA fragment containing an ASK1 gene was recovered from the gel, and then digested with restriction enzymes, NotI and SalI, and inserted into a plasmid pFASTBAC1 (Invitrogen) to prepare a plasmid pFB-ASK1. The insert was verified by sequencing. Recombinant baculovirus was prepared according to the procedure of the Bac-to-Bac baculovirus expression system (Invitrogen).
Sf-21 cells were seeded to achieve 1×10^6 cells/mL in 100 mL of Sf-900 II SFM medium (Invitrogen) which contains 10% fetal calf serum and then cultured at 27° C. for 24 hrs. To express ASK1 in cells, 0.15 mL of the recombinant baculovirus virus stock was added to cells, and the then cultured for 60 hrs. The cells were separated from the culture solution by centrifugation at 3000 rpm for 10 min and washed once with PBS. The cells were suspended in 10 mL of lysis buffer (25 mM HEPES (pH 7.5), 1% Triton X, 130 mM NaCl, 1 mM EDTA, 1 mM DTT, 25 mM β-glycerophosphate, Protease inhibitor complete (Roche), 1 mM sodium orthovanadate) and ruptured by four times of treatment with a homogenizer (POLYTRON) at 20000 rpm for 30 seconds. Active ASK1 protein was purified from a supernatant obtained by centrifugal separation at 40000 rpm for 45 min using anti-FLAG M2 Affinity Gel (Sigma).
The test compounds (2.5 μl) dissolved in DMSO were added to wells containing 37.5 μl of the reaction solution (25 mM HEPES (pH 7.5), 10 mM magnesium acetate, 1 mM DTT) including 30 ng of active ASK1 protein and 1 μg of myelin basic protein (Wako), and incubated at room temperature for 5 min. To start the reaction, 10 μL of ATP solution (2.5 μM ATP, 0.1 μCi [γ-^32P]ATP) was added to wells. After incubating at room temperature for 30 min, the reaction was terminated by adding 50 μl of 20% TCA solution. The reaction solution was incubated at 4° C. for 30 min and an acid-insoluble fraction was transferred onto a GF/C filter (Packard) with Cell Harvester (Packard), and washed with 250 mM phosphoric acid. After drying at 45° C. for 60 min., 40 μL of Microscint 0 (Packard) was added and the radioactivity was measured with TopCount (Packard). The concentrations (IC50 value) of the test compounds necessary for 50% inhibition of kinase activity were calculated by PRISM 3.0 (Graphpad Software).
The enzyme activities of selected compounds of the present invention against ASK1 were determined using the assay disclosed in Example A and B. The resulted pIC50 values are reported in Table 1.

SMILES	pIC50
Cc1cc2nc(NC(=O)[C@@H]3C[C@H]3c3ccc(F)cc3)cc(-c3ccccc3)n2n1 (racemic) [Compound 359, trans-2-(4-Fluorophenyl)-N-(2-methyl-7-phenylpyrazolo[1,5-a]pyrimidin-5-yl)cyclopropanecarboxamide]	> 7.00
CC(=O)NC1CCN(c2cc(NC(=O)[C@@H]3C[C@H]3c3ccc(F)cc3)nc3cc(C)nn23)CC1 (racemic) [Compound 361, N-(7-(4-acetamidopiperidin-1-yl)-2-methylpyrazolo[1,5-a]pyrimidin-5-yl)-2-(4-fluorophenyl)cyclopropanecarboxamide]	> 7.00
Cc1cc2nc(NC(=O)[C@@H]3C[C@H]3c3ccc(F)cc3)cc(N3CCC(NC(N)=O)CC3)n2n1 (racemic) [Compound 362, 2-(4-fluorophenyl)-N-(2-methyl-7-(4-ureidopiperidin-1-yl)pyrazolo[1,5-a]pyrimidin-5-yl)cyclopropanecarboxamide]	> 7.00
Cc1cc2nc(NC(=O)c3ccc(C(C)(C)C)cc3)cc(-c3cccc(CO)c3)n2n1 [Compound 1, 4-tert-butyl-N-(7-(3-(hydroxymethyl)phenyl)-2-methylpyrazolo[1,5-a]pyrimidin-5-yl)benzamide]	> 7.00
CC(C)(C)c1ccc(C(=O)Nc2cc(-c3cccs3)n3nccc3n2)cc1 [Compound 2, 4-tert-butyl-N-(7-(thiophen-2-yl)pyrazolo[1,5-a]pyrimidin-5-yl)benzamide]	> 7.00
Cc1cc2nc(NC(=O)c3ccc(C(C)(C)C)cc3)cc(-c3cccc(CCCO)c3)n2n1 [Compound 3, 4-(tert-butyl)-N-(7-(3-(3-hydroxypropyl)phenyl)-2-methylpyrazolo[1,5-a]pyrimidin-5-yl)benzamide]	> 7.00
Cc1cc2nc(NC(=O)c3ccc(C(C)(C)C)cc3)cc(-c3ccc(F)c(CO)c3)n2n1 [Compound 4, 4-tert-butyl-N-(7-(4-fluoro-3-(hydroxymethyl)phenyl)-2-methylpyrazolo[1,5-a]pyrimidin-5-yl)benzamide]	> 7.00
CC(C)(C)c1ccc(C(=O)Nc2cc(-c3cccc(CO)c3)n3nccc3n2)cc1 [Compound 5, 4-tert-butyl-N-(7-(3-(hydroxymethyl)phenyl)pyrazolo[1,5-a]pyrimidin-5-yl)benzamide]	> 7.00
CC(C)(O)c1ccc(C(=O)Nc2cc(-c3cccc(CO)c3)n3nccc3n2)cc1 [Compound 6, N-(7-(3-(hydroxymethyl)phenyl)pyrazolo[1,5-a]pyrimidin-5-yl)-4-(2-hydroxypropan-2-yl)benzamide]	> 7.00
CC(O)(c1ccc(C(=O)Nc2cc(-c3cccc(CO)c3)n3nccc3n2)cc1)C(F)(F)F (centres unmarked) [Compound 7, N-(7-(3-(hydroxymethyl)phenyl)pyrazolo[1,5-a]pyrimidin-5-yl)-4-(1,1,1-trifluoro-2-hydroxypropan-2-yl)benzamide]	> 7.00
CC(C)(C)c1ccc(C(=O)Nc2cc(-c3ccc(S(C)(=O)=O)cc3)n3nccc3n2)cc1 [Compound 8, 4-tert-butyl-N-(7-(4-(methylsulfonyl)phenyl)pyrazolo[1,5-a]pyrimidin-5-yl)benzamide]	< 6.00
COc1ccc(-c2cc(NC(=O)c3ccc(C(C)(C)C)cc3)nc3ccnn23)cc1 [Compound 9, 4-tert-Butyl-N-(7-(4-methoxyphenyl)pyrazolo[1,5-a]pyrimidin-5-yl)benzamide]	> 7.00
CC(C)(C)c1ccc(C(=O)Nc2cc(-c3cccc(CCO)c3)n3nccc3n2)cc1 [Compound 10, 4-tert-butyl-N-(7-(3-(2-hydroxyethyl)phenyl)pyrazolo[1,5-a]pyrimidin-5-yl)benzamide]	> 7.00
CC(C)(C)c1ccc(C(=O)Nc2cc(-c3cccc(CCCO)c3)n3nccc3n2)cc1 [Compound 11, 4-tert-Butyl-N-(7-(3-(3-hydroxypropyl)phenyl)pyrazolo[1,5-a]pyrimidin-5-yl)benzamide]	> 7.00
CC(=O)c1cccc(-c2cc(NC(=O)c3ccc(C(C)(C)C)cc3)nc3ccnn23)c1 [Compound 12, N-(7-(3-Acetylphenyl)pyrazolo[1,5-a]pyrimidin-5-yl)-4-tert-butylbenzamide]	< 6.00
COc1ccc(-c2cc(NC(=O)c3ccc(C(C)(C)C)cc3)nc3ccnn23)cn1 [Compound 13, 4-tert-Butyl-N-(7-(6-methoxypyridin-3-yl)pyrazolo[1,5-a]pyrimidin-5-yl)benzamide]	< 6.00
CC(=O)Nc1ccc(-c2cc(NC(=O)c3ccc(C(C)(C)C)cc3)nc3ccnn23)cn1 [Compound 14, N-(7-(6-Acetamidopyridin-3-yl)pyrazolo[1,5-a]pyrimidin-5-yl)-4-tert-butylbenzamide]	6.00 to 7.00
COc1cccc(-c2cc(NC(=O)c3ccc(C(C)(C)C)cc3)nc3ccnn23)c1 [Compound 15, 4-tert-Butyl-N-(7-(3-methoxyphenyl)pyrazolo[1,5-a]pyrimidin-5-yl)benzamide]	> 7.00
CC(C)(O)c1ccc(C(=O)Nc2cc(-c3ccccc3)n3nccc3n2)cc1 [Compound 16, 4-(2-Hydroxypropan-2-yl)-N-(7-phenylpyrazolo[1,5-a]pyrimidin-5-yl)benzamide]	> 7.00
CC(C)(O)c1ccc(C(=O)Nc2cc(-c3cccc(NS(C)(=O)=O)c3)n3nccc3n2)cc1 [Compound 17, 4-(2-Hydroxypropan-2-yl)-N-(7-(3-(methylsulfonamido)phenyl)pyrazolo[1,5-a]pyrimidin-5-yl)benzamide]	6.00 to 7.00
CC(C)(O)c1ccc(C(=O)Nc2cc(-c3ccoc3)n3nccc3n2)cc1 [Compound 18, N-(7-(Furan-3-yl)pyrazolo[1,5-a]pyrimidin-5-yl)-4-(2-hydroxypropan-2-yl)benzamide]	6.00 to 7.00
COc1ccc(-c2cc(NC(=O)c3ccc(C(C)(C)O)cc3)nc3ccnn23)cc1 [Compound 19, 4-(2-Hydroxypropan-2-yl)-N-(7-(4-methoxyphenyl)pyrazolo[1,5-a]pyrimidin-5-yl)benzamide]	> 7.00
Cc1ccc(-c2cc(NC(=O)c3ccc(C(C)(C)O)cc3)nc3ccnn23)cc1 [Compound 20, 4-(2-Hydroxypropan-2-yl)-N-(7-p-tolylpyrazolo[1,5-a]pyrimidin-5-yl)benzamide]	> 7.00
CC(C)(O)c1ccc(C(=O)Nc2cc(-c3cccc(CC#N)c3)n3nccc3n2)cc1 [Compound 21, N-(7-(3-(cyanomethyl)phenyl)pyrazolo[1,5-a]pyrimidin-5-yl)-4-(2-hydroxypropan-2-yl)benzamide]	6.00 to 7.00
CC(C)(O)c1ccc(C(=O)Nc2cc(-c3ccc(C(N)=O)cc3)n3nccc3n2)cc1 [Compound 22, N-(7-(4-carbamoylphenyl)pyrazolo[1,5-a]pyrimidin-5-yl)-4-(2-hydroxypropan-2-yl)benzamide]	6.00 to 7.00
CSc1ccc(-c2cc(NC(=O)c3ccc(C(C)(C)O)cc3)nc3ccnn23)cc1 [Compound 23, 4-(2-hydroxypropan-2-yl)-N-(7-(4-(methylthio)phenyl)pyrazolo[1,5-a]pyrimidin-5-yl)benzamide]	> 7.00
